The test system of experiment [1] is Advanced-stage HCC. Particulars: patients; cited from earlier work.
Experiment [2] relates to WNT pathway reporter. The experiment can be described thus: GFP-based WNT reporter in stable MYC-CTNNB1 organoids. Type of experiment: cell-based, mouse. From the text:
The library was further refined by performing dose-response curves on tumor organoids and primary human hepatocytes (FIG. 1C). In addition, stable MYC-CTNNB1 organoids expressing a GFP-based WNT reporter were created to assess direct transcriptional inhibition of the pathway. […] WNTinib was exemplary for its therapeutic index, as defined by its preferential activity in the CTNNB1-driven model as compared to hepatocytes.

In experiment [3] the test system is MYC-CTNNB1 tumor organoid allografts. Briefly: MYC-CTNNB1 tumor organoid allografts. Type of experiment: in vivo, C57BL/6J mice.
The test system of experiment [4] is cytoplasmic kinases including BRAF and p38α/β. Briefly: NanoBRET live cell target engagement, cytoplasmic kinases. Type of experiment: cell-based. Conditions: relative to sorafenib and regorafenib. The procedure: For NanoBRET™ dose response experiments, SNU398 cells were transfected with a MAPK14-NanoLuc© Fusion Vector according to the Promega NanoBRET™ TE Intracellular Kinase Assay protocol. Following overnight transfection, cells were trypsinized and redistributed on a white 96-well plate (20,000 cells per well). Cells were incubated with 1 μM of K-4 Tracer and sorafenib or WNTinib at doses ranging from 0.02→20 μM for two hours. After drug incubation, plates were equilibrated to room temperature for 15 minutes, and NanoBRET™ Nano-Glo© Substrate and Extracellular NanoLuc© Inhibitor were added to wells. Bioluminescent donor (NanoLuc© luciferase) and fluorescent acceptor (Tracer) emission were measured on a GloMax plate reader at 450 and 600 nm, respectively. BRET ratio is reported as acceptor signal divided by the donor signal for each well. Conditions were evaluated in technical triplicates for each experiment, and experiments were repeated in biological duplicates. […] The plate was continuously read on a GloMax plate reader for 2 hours to record BRET signal from the association of the K-4 Tracer with the MAPK14-NanoLuc© Fusion Vector. Conditions were evaluated in technical triplicates, and experiments were repeated in biological duplicates.
In order to characterize the direct targets of WNTinib, kinome selectivity profiles were first assessed by in vitro kinase assays. […]
A general note: In BRET a luciferase serves as donor, and the signal depends on an acceptor being close.

The subject of experiment [5] is receptor tyrosine kinases including KIT and VEGFR1/2. The experiment can be described thus: NanoBRET live cell target engagement, receptor tyrosine kinases. In kind it is cell-based. Conditions: relative to sorafenib and regorafenib.
In experiment [6] the test system is H3K27me3 at promoters of Wnt and pluripotency genes. Briefly: ChIP-sequencing of H3K27me3 in MYC-CTNNB1 organoids. In kind it is cell-based, mouse. Conditions: WNTinib 1 μM, 24 hours. From the text:
Importantly, this was not seen in the MYC-Tp53 model organoids (FIG. 10C).

Experiment [7] concerns immune cell tumor infiltration. The experiment can be described thus: Immune cell profiling of tumors by spectral cytometry. In kind it is in vivo, mouse. Particulars: compared to vehicle or standard of care (sorafenib); six days after start of dosing. The method, then: FIGS. 14A-14G show results pertaining the use of WNTinib in combination with immunotherapy. […] C57/BL6 mice were randomized into treatment groups using IVIS imaging to quantify tumor size based on luminescence signal intensity. After randomization, kinase inhibitors were dissolved in 25% cremaphor:ethanol in water and administered orally (30 mg/kg sorafenib, 20 mg/kg WNTinib) beginning 7 days after injection following 5 days on/2 days off dosing schedule. Immunotherapy (anti-PD-1) was administered via intraperitoneal injection on days 11, 13, and 15 after injection at 200 μg. Log-rank p-values for survival in drug treatment groups to vehicle group and median survival are shown. Mice were assigned to different treatment groups as follows: vehicle (25), sorafenib (10), aPD-1 (15), WNTinib (25), and WNTinib+aPD-1 (25). […] Significant differences between groups indicated by asterisks. ** P<0.005, *** P<0.0005, as calculated with an ANOVA with Tukey test for multiple comparisons. Animals were dosed via daily oral gavage using 20 mg/kg of WNTinib and 30 mg/kg of sorafenib. […] 3 animals per indicated groups were assessed using spectral cytometry panels for both lymphocytes and myeloid cells. […]
Next, the effect of WNTinib on immune cell tumor infiltration was evaluated.

Setting [8] is: WNTinib 20 mg/kg daily, anti-PD-1 200 μg i.p., start ~350 mm^3.
Where [9] appears, read: tumors of advanced-stage allograft study.

Turning to `CNC(=O)c1cc(Oc2ccc(NC(=O)Nc3ccc(Cl)c(C(F)(F)F)c3)cc2)ccn1` [sorafenib, reference compound], in experiment [1], the median survival is given as 11-14 months.
Consider `CNC(=O)c1cc(Oc2ccc(NC(=O)Nc3ccc(C(F)(F)C(F)(F)F)cc3)c(F)c2)ccn1` [WNTinib, 4-(3-fluoro-4-(3-(4-(perfluoroethyl)phenyl)ureido)phenoxy)-N-methylpicolinamide], for which the “WNT-driven GFP expression (WNT pathway reporter)” value in experiment [2] is on record as “only compound to downregulate WNT-driven GFP expression”. For the same molecule, in experiment [3] (setting [8]), the “survival in allograft combination study” value is “prolong survival” and the “tumor regression in allograft combination study” value was “able to induce tumor regression”. The “efficacy in allograft combination study” value in experiment [3] (WNTinib 20 mg/kg, sorafenib 30 mg/kg daily, anti-PD-1 200 μg i.p., start ~350 mm^3) is “superior efficacy”. Besides, the tumor regression entry in experiment [3] (treatment started at 100 mm^3, 30 mg/kg daily oral gavage) is on record as “induced significant tumor regression in the majority of animals”. The “efficacy in advanced-stage setting versus sorafenib” value in experiment [3] (treatment started at 300-400 mm^3, WNTinib 20 mg/kg, sorafenib 30 mg/kg) was “superior to the standard of care clinical compound (sorafenib)”. Further, in experiment [3] (setting [9]), the “EZH2 T367 phosphorylation in tumors” value is “inhibition of EZH2 T367 phosphorylation” and the “WNT-target genes in tumors (qPCR)” value was “in vivo suppression of WNT-target genes”. Also, the “target engagement potency on cytoplasmic kinases BRAF and p38α/β” value in experiment [4] was “markedly less potent than sorafenib and regorafenib”. In addition, in experiment [5], the “live cell target engagement IC50 on receptor tyrosine kinases” value is “retained a similar in vivo IC50”. Also, in experiment [6], the “H3K27me3 at promoters of genes of Wnt and pluripotency pathways” value is “upregulated the tri-methylation of lysine 27 on histone H3 (H3K27me3)”. In addition, the “immune cell tumor infiltration” value in experiment [7] is “significantly increase the number of CD45^+ cells, the ratio of CD4/CD8, and the number of neutrophils and reduce the number of B cells and immunosuppressed tissue associated macrophages (TAM) in tumors”.

Values taken from patent publication US20230404985A1, “METHODS OF TREATING TUMORS AND CANCERS HAVING DYSREGULATED WNT SIGNALING PATHWAYS” (ICAHN SCHOOL OF MEDICINE AT MOUNT SINAI, priority 2020, published 2023).
